Test results: the CheMixHub ionic liquid set

Assay: xn = mol fraction of the nth substance listed
Settings: 100 kPa

CCCCCCCC[n+]1ccccc1.[Br-] + C[C@H](N)C(=O)O + O
Settings | electrical conductivity [S/m]
288.15 K, x2 = 0.0008949, x1 = 0.005855 | 1.24
288.15 K, x2 = 0.000895, x1 = 0.005791 | 1.23
288.15 K, x2 = 0.0008952, x1 = 0.005507 | 1.2
288.15 K, x2 = 0.0008955, x1 = 0.005201 | 1.17
288.15 K, x2 = 0.0008958, x1 = 0.004877 | 1.14
288.15 K, x2 = 0.0008961, x1 = 0.004522 | 1.1
288.15 K, x2 = 0.0008965, x1 = 0.004131 | 1.04
288.15 K, x2 = 0.0008969, x1 = 0.003704 | 0.975
288.15 K, x2 = 0.0008973, x1 = 0.003232 | 0.884
288.15 K, x2 = 0.0008977, x1 = 0.002757 | 0.789
288.15 K, x2 = 0.0008982, x1 = 0.002255 | 0.678
288.15 K, x2 = 0.0008984, x1 = 0.001938 | 0.603
288.15 K, x2 = 0.0008988, x1 = 0.001556 | 0.507
288.15 K, x2 = 0.0008991, x1 = 0.001181 | 0.405
288.15 K, x2 = 0.0008995, x1 = 0.0007571 | 0.288
288.15 K, x2 = 0.001794, x1 = 0.002782 | 0.753
288.15 K, x2 = 0.001795, x1 = 0.002177 | 0.623
288.15 K, x2 = 0.001796, x1 = 0.001292 | 0.412
288.15 K, x2 = 0.001796, x1 = 0.001777 | 0.532
288.15 K, x2 = 0.001797, x1 = 0.0008214 | 0.291
293.15 K, x2 = 0.0008949, x1 = 0.005848 | 1.41
293.15 K, x2 = 0.000895, x1 = 0.005786 | 1.4
293.15 K, x2 = 0.0008952, x1 = 0.005501 | 1.37
293.15 K, x2 = 0.0008955, x1 = 0.005196 | 1.33
293.15 K, x2 = 0.0008958, x1 = 0.004871 | 1.29
293.15 K, x2 = 0.0008961, x1 = 0.004517 | 1.25
293.15 K, x2 = 0.0008965, x1 = 0.004128 | 1.18
293.15 K, x2 = 0.0008969, x1 = 0.003703 | 1.1
293.15 K, x2 = 0.0008973, x1 = 0.003228 | 1
293.15 K, x2 = 0.0008977, x1 = 0.002756 | 0.894
293.15 K, x2 = 0.0008982, x1 = 0.002254 | 0.766
293.15 K, x2 = 0.0008984, x1 = 0.001937 | 0.68
293.15 K, x2 = 0.0008988, x1 = 0.001555 | 0.568
293.15 K, x2 = 0.0008991, x1 = 0.001179 | 0.455
293.15 K, x2 = 0.0008995, x1 = 0.0007571 | 0.334
293.15 K, x2 = 0.001794, x1 = 0.00278 | 0.851
293.15 K, x2 = 0.001795, x1 = 0.002175 | 0.705
293.15 K, x2 = 0.001796, x1 = 0.001292 | 0.464
293.15 K, x2 = 0.001796, x1 = 0.001777 | 0.602
293.15 K, x2 = 0.001797, x1 = 0.0008196 | 0.325
298.15 K, x2 = 0.0008949, x1 = 0.005843 | 1.59
298.15 K, x2 = 0.000895, x1 = 0.005779 | 1.58
298.15 K, x2 = 0.0008952, x1 = 0.005494 | 1.54
298.15 K, x2 = 0.0008955, x1 = 0.005188 | 1.5
298.15 K, x2 = 0.0008958, x1 = 0.004866 | 1.45
298.15 K, x2 = 0.0008961, x1 = 0.004511 | 1.4
298.15 K, x2 = 0.0008965, x1 = 0.004122 | 1.32
298.15 K, x2 = 0.0008969, x1 = 0.003697 | 1.24
298.15 K, x2 = 0.0008973, x1 = 0.003225 | 1.12
298.15 K, x2 = 0.0008977, x1 = 0.002752 | 1
298.15 K, x2 = 0.0008982, x1 = 0.002252 | 0.857
298.15 K, x2 = 0.0008984, x1 = 0.001935 | 0.762
298.15 K, x2 = 0.0008988, x1 = 0.001553 | 0.633
298.15 K, x2 = 0.0008991, x1 = 0.001178 | 0.509
298.15 K, x2 = 0.0008995, x1 = 0.0007571 | 0.36
298.15 K, x2 = 0.001794, x1 = 0.002776 | 0.953
298.15 K, x2 = 0.001795, x1 = 0.002171 | 0.788
298.15 K, x2 = 0.001796, x1 = 0.00129 | 0.518
298.15 K, x2 = 0.001796, x1 = 0.001774 | 0.671
298.15 K, x2 = 0.001797, x1 = 0.0008196 | 0.36
303.15 K, x2 = 0.0008949, x1 = 0.005838 | 1.78
303.15 K, x2 = 0.000895, x1 = 0.005773 | 1.77
303.15 K, x2 = 0.0008952, x1 = 0.005489 | 1.73
303.15 K, x2 = 0.0008955, x1 = 0.005185 | 1.68
303.15 K, x2 = 0.0008958, x1 = 0.004861 | 1.62
303.15 K, x2 = 0.0008961, x1 = 0.004508 | 1.56
303.15 K, x2 = 0.0008965, x1 = 0.004119 | 1.48
303.15 K, x2 = 0.0008969, x1 = 0.003694 | 1.38
303.15 K, x2 = 0.0008973, x1 = 0.003221 | 1.25
303.15 K, x2 = 0.0008977, x1 = 0.002748 | 1.11
303.15 K, x2 = 0.0008982, x1 = 0.002248 | 0.952
303.15 K, x2 = 0.0008984, x1 = 0.001933 | 0.834
303.15 K, x2 = 0.0008988, x1 = 0.001553 | 0.687
303.15 K, x2 = 0.0008991, x1 = 0.001178 | 0.563
303.15 K, x2 = 0.0008995, x1 = 0.0007553 | 0.418
303.15 K, x2 = 0.001794, x1 = 0.002774 | 1.06
303.15 K, x2 = 0.001795, x1 = 0.002169 | 0.875
303.15 K, x2 = 0.001796, x1 = 0.001289 | 0.574
303.15 K, x2 = 0.001796, x1 = 0.001774 | 0.741
303.15 K, x2 = 0.001797, x1 = 0.0008196 | 0.4
308.15 K, x2 = 0.000895, x1 = 0.005759 | 2.02
308.15 K, x2 = 0.000895, x1 = 0.005823 | 2.04
308.15 K, x2 = 0.0008953, x1 = 0.005478 | 1.95
308.15 K, x2 = 0.0008955, x1 = 0.005172 | 1.88
308.15 K, x2 = 0.0008958, x1 = 0.00485 | 1.8
308.15 K, x2 = 0.0008961, x1 = 0.004497 | 1.72
308.15 K, x2 = 0.0008965, x1 = 0.00411 | 1.63
308.15 K, x2 = 0.0008969, x1 = 0.003686 | 1.51
308.15 K, x2 = 0.0008973, x1 = 0.003214 | 1.36
308.15 K, x2 = 0.0008977, x1 = 0.002743 | 1.2
308.15 K, x2 = 0.0008982, x1 = 0.002245 | 1.02
308.15 K, x2 = 0.0008984, x1 = 0.001928 | 0.908
308.15 K, x2 = 0.0008988, x1 = 0.001549 | 0.78
308.15 K, x2 = 0.0008991, x1 = 0.001174 | 0.643
308.15 K, x2 = 0.0008995, x1 = 0.0007535 | 0.488
308.15 K, x2 = 0.001794, x1 = 0.002767 | 1.15
308.15 K, x2 = 0.001795, x1 = 0.002166 | 0.937
308.15 K, x2 = 0.001796, x1 = 0.001287 | 0.631
308.15 K, x2 = 0.001796, x1 = 0.001768 | 0.805
308.15 K, x2 = 0.001797, x1 = 0.0008178 | 0.46
